According to patent US20110172147A1, “NEUROPEPTIDE-2 RECEPTOR (Y-2R) AGONISTS” (priority 2009, published 2011):

Experiments:
Format in all cases: cell-based
Y1R = biological target: T1, Y1R (Homo sapiens, UniProt P25929); test: CaFlux Assay (FLIPR), Y1R
T1 sequence (P25929 1-384): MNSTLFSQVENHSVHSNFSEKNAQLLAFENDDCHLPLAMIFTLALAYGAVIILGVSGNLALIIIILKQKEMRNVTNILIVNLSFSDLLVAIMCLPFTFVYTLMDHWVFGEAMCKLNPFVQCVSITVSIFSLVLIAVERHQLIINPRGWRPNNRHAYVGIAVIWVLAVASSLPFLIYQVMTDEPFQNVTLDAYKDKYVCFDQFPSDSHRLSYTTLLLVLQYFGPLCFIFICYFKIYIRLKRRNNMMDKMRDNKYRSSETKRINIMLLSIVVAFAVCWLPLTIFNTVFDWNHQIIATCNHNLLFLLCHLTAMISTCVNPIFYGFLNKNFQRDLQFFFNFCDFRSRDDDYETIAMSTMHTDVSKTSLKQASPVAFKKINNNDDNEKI

hNPY2R [1] = biological target: T2, hNPY2R (Homo sapiens, UniProt P49146); test: cAMP Agonist Assay, HEK293/hNPY2R; set-up: expressed in transfected cells; host or cells: HEK293/hNPY2R (G418 selection)
T2 sequence (P49146 1-381): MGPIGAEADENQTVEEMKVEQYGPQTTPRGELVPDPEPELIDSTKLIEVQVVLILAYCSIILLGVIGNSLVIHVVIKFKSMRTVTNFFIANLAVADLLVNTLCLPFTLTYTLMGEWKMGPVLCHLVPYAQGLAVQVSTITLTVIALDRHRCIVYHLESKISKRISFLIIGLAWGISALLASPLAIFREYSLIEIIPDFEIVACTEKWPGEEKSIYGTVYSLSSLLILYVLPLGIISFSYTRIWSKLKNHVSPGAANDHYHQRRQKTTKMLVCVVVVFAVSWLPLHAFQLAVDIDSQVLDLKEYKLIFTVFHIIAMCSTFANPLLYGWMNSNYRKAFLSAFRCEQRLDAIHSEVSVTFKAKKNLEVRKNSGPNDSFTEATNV
Procedure, shortened: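 HEK293/hNPY2R cells (10,000/well, overnight) stimulated 30 min at room temperature with compound plus 5 μM forskolin and 0.5 mM IBMX (1.1% DMSO final). Lysate cAMP measured by competitive chemiluminescent ELISA (AP conjugate, CSPD substrate); quadruplicates.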

hNPY2R [2] = biological target: T2, hNPY2R; test: CaFlux Assay (FLIPR), Y2R; set-up: expressed in transfected cells; host or cells: HEK-293 stably transfected with G protein chimera Gαqi9
Procedure, shortened: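 Intracellular calcium mobilisation was measured in HEK-293 cells engineered with Gαqi9 and the relevant receptor; responses were normalised as % of maximal positive-control signal.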

Y5R = biological target: T3, Y5R (Homo sapiens, UniProt Q15761); test: CaFlux Assay (FLIPR), Y5R
T3 sequence (Q15761 1-445): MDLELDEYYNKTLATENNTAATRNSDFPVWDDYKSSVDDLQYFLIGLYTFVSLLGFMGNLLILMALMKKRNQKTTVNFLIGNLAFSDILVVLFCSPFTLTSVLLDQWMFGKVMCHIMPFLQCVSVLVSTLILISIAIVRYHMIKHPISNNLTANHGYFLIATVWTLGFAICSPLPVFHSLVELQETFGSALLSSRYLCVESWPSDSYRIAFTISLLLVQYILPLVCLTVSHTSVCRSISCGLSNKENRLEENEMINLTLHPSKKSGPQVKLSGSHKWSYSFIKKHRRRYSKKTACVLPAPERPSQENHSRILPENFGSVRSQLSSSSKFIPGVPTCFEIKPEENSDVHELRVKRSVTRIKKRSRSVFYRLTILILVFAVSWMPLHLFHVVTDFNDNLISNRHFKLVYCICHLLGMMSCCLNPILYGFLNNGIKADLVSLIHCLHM

Y4R = Y4R (Homo sapiens, UniProt P50391); test: CaFlux Assay (FLIPR), Y4R
Sequence of Y4R (P50391 whole entry): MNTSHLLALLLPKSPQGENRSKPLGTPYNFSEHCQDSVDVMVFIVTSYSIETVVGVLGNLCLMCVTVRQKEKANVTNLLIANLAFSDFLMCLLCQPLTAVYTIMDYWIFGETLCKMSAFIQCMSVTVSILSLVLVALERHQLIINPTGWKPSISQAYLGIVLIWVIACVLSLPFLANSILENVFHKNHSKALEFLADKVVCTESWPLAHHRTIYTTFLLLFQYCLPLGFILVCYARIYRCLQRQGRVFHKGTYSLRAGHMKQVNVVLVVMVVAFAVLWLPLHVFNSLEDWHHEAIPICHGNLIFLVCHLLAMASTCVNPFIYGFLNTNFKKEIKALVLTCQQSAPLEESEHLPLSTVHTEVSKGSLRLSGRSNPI

SMILES	EC50 (Y1R)	EC50 (hNPY2R [1])	EC50 (hNPY2R [2])	EC50 (Y5R)	EC50 (Y4R)
CCCCCCCCCCCCCCCC(=O)NCCCCCC(=O)N[C@H](C(=O)N[C@@H](CCCCNC(=O)CCOCCOCCOCCOCCOCCOCCOCCOC)C(=O)N1CCN(c2ccc3ncn(CC(=O)N[C@@H](CCCNC(N)=O)C(=O)N[C@@H](Cc4c[nH]cn4)C(=O)N[C@@H](Cc4ccc(O)cc4)C(=O)N[C@@H](CC(C)C)C(=O)N[C@@H](CC(N)=O)C(=O)N[C@@H](Cc4c[nH]c5ccccc45)C(=O)N[C@H](C(=O)N[C@H](C(=O)N[C@@H](CCCNC(=N)N)C(=O)N[C@@H](CCC(N)=O)C(=O)N(C)[C@@H](CCCNC(=N)N)C(=O)N[C@@H](Cc4ccc(O)cc4)C(N)=O)[C@@H](C)O)C(C)C)c(=O)c3c2)CC1)[C@@H](C)CC [Example 30]	> 6000 nM	0.47 nM	0.143 nM	5690 nM	> 6000 nM
CCCCCCCCCCCCCCCC(=O)NCCCCCC(=O)N[C@H](C(=O)N[C@@H](CCCCNC(=O)CCOCCOCCOCCOCCOCCOCCOCCOCCOCCOCCOCCOC)C(=O)N1CCN(c2ccc3ncn(CC(=O)N[C@@H](CCCNC(N)=O)C(=O)N[C@@H](Cc4c[nH]cn4)C(=O)N[C@@H](Cc4ccc(O)cc4)C(=O)N[C@@H](CC(C)C)C(=O)N[C@@H](CC(N)=O)C(=O)N[C@@H](Cc4c[nH]c5ccccc45)C(=O)N[C@H](C(=O)N[C@H](C(=O)N[C@@H](CCCNC(=N)N)C(=O)N[C@@H](CCC(N)=O)C(=O)N(C)[C@@H](CCCNC(=N)N)C(=O)N[C@@H](Cc4ccc(O)cc4)C(N)=O)[C@@H](C)O)C(C)C)c(=O)c3c2)CC1)[C@@H](C)CC [Example 31]	> 6000 nM	0.37 nM	0.111 nM	3510 nM	> 6000 nM
CCCCCCCCCCCCCCCC(=O)NCCCCCC(=O)N[C@H](C(=O)N[C@@H](CCCCNC(=O)CCOCCOCCOCCOCCOCCOCCOCCOCCOCCOCCOCCOCCOCCOCCOCCOC)C(=O)N1CCN(c2ccc3ncn(CC(=O)N[C@@H](CCCNC(N)=O)C(=O)N[C@@H](Cc4c[nH]cn4)C(=O)N[C@@H](Cc4ccc(O)cc4)C(=O)N[C@@H](CC(C)C)C(=O)N[C@@H](CC(N)=O)C(=O)N[C@@H](Cc4c[nH]c5ccccc45)C(=O)N[C@H](C(=O)N[C@H](C(=O)N[C@@H](CCCNC(=N)N)C(=O)N[C@@H](CCC(N)=O)C(=O)N(C)[C@@H](CCCNC(=N)N)C(=O)N[C@@H](Cc4ccc(O)cc4)C(N)=O)[C@@H](C)O)C(C)C)c(=O)c3c2)CC1)[C@@H](C)CC [Example 32]	> 6000 nM	0.23 nM	0.15 nM	4760 nM	> 6000 nM
CCCCCCCCCCCCCCCCCCCC(=O)NCCCCCC(=O)N[C@H](C(=O)N[C@@H](CCCCNC(=O)CCOCCOCCOCCOCCOCCOCCOCCOCCOCCOCCOCCOCCOCCOCCOCCOCCOCCOCCOCCOCCOCCOCCOCCOC)C(=O)N1CCN(c2ccc3ncn(CC(=O)N[C@@H](CCCNC(N)=O)C(=O)N[C@@H](Cc4c[nH]cn4)C(=O)N[C@@H](Cc4ccc(O)cc4)C(=O)N[C@@H](CC(C)C)C(=O)N[C@@H](CC(N)=O)C(=O)N[C@@H](Cc4c[nH]c5ccccc45)C(=O)N[C@H](C(=O)N[C@H](C(=O)N[C@@H](CCCNC(=N)N)C(=O)N[C@@H](CCC(N)=O)C(=O)N(C)[C@@H](CCCNC(=N)N)C(=O)N[C@@H](Cc4ccc(O)cc4)C(N)=O)[C@@H](C)O)C(C)C)c(=O)c3c2)CC1)[C@@H](C)CC [Example 33]	> 6000 nM	0.13 nM	0.127 nM	4290 nM	> 6000 nM
